Source: US20220153780A1, “SALT FORMS OF S-(N, N-DIETHYLCARBAMOYL)GLUTATHIONE” (Tonix Pharma Holdings Limited, priority 2019, published 2022)
Entries after “also recorded” stand apart in the source; their conditions may differ.

How the values were obtained:
Assay type in all cases: physicochemical
[1] = Stability studies, one month storage at controlled temperature and humidity, XRPD
Protocol: Approximately 50 mg of the anhydrous carbamathione lysine salt was placed in a glass vial crimped with a PTFE/silicone septum and stored at the desired temperature and humidity for one month. Controlled humidity was realized employing saturated solutions of salts: NaCl for 75% RH at 40° C. and NaBr for 60% RH at 25° C. After storage, the samples were analyzed by XRPD analysis. Each stability test was performed in duplicate.

[2] = Water solubility observed in slurry experiment in water; details: room temperature; equimolar L-lysine adduct
Protocol: (§1) Carbamathione (50 mg) and one equivalent of L-Lysine were weighed in an 8-mL glass vial. Water (1-2 mL) was added and the mixture was allowed to stir for 24 hours. The equimolar mixture of carbamathione and L-Lysine was soluble in water and no precipitate was observed after 24 hours of stirring. The solution was left to evaporate at high temperature (60° C.) and an off-white solid was isolated. XRPD analysis confirmed the recovery of new derivative TNX1001-LLYS-NP01 (FIG. 15).
The synthesis of the new derivative, TNX1001-LLYS-NP01, was carried out to facilitate its complete characterization. TNX1001-SM (150 mg) and L-Lysine (1 eq., 54 mg) were accurately weighed in a vial equipped with a magnetic stirring bar. H2O (3 ml) was added and the mixture was stirred at room temperature for 4 hours until a clear solution was obtained. The solution was filtered through a 0.45 μm RC-filter and the filtrate was evaporated at high temperature (60° C.). The recovered off-white solid was compared with the sample that was obtained from the slurry experiments in water by XRPD analysis to confirm the recovery of desired derivative (FIG. 26). The product was completely characterized using the methods outlined in Table 8 (see FIGS. 27-33).

[3] = Dynamic vapor sorption (DVS) analysis
Protocol: The anhydrous carbamathione lysine salt (TNX1001-LLYS-NP01) was subjected to dynamic vapor sorption (DVS) analysis (FIG. 35). […] Similarly, the desorption curves display a clear decrease in mass between 30% and 20% RH. This behavior is consistent with a compound forming a hydrate species. Additionally, based on the water uptake of approximately 6.1% w/w at 70% RH, the hydrated form of the salt is likely a dihydrate species (FIG. 36).
The sorption/desorption cycle was performed twice.

[4] = Solid form stability by XRPD (ambient conditions, humidity, drying)
Protocol: as §1
After 24 hours of stirring, the solid was collected and analyzed by XRPD, and a new diffraction pattern was observed (FIG. 18). This new pattern was labeled as TNX1001-LLYS-NP02. […] After the drying step, the sample was exposed to humidity for 24 hours and the diffractogram acquired again.
From the experiments carried out with L-lysine in organic media, a second new diffraction pattern was also observed, in particular when an equimolar mixture of TNX1001-SM and L-lysine co-former was slurried at room temperature for 24 hours in Methanol or Dichloromethane (TNX1001-LLYS-NP02).

[5] = Dissolution temperature in buffers (Crystal16) and estimated solubility at 25° C.
Protocol: Three different buffer solutions were prepared according to European Pharmacopoeia procedures (pH 1.2), or by diluting commercially available concentrate buffer solutions (pH 4.5 and 6.8).
Phosphate buffer at pH 6.8 was prepared by diluting a commercially available concentrate solution (Reagecon) with HPLC grade water. The final pH was adjusted using a 1 M NaOH solution.
Acetate buffer at pH 4.5 was prepared by diluting a commercially available concentrate solution (Reagecon) with HPLC grade water. The final pH was adjusted using concentrated acetic acid and a 1 M NaOH solution.
A buffer at pH 1.2 was prepared by mixing NaCl (0.2 M, 125 mL) and HCl (0.2 M, 212.5 mL) solutions followed by adjusting the volume to 500 mL. The pH was adjusted with a 1 M NaOH solution.
The determination of the dissolution temperature was performed in the automatic reactor system Crystal16. The system allows for careful control of the temperature and is equipped with a turbidimeter enabling the detection of the complete dissolution of the solid. The proper amount of compound was accurately weighted in a 1.5 mL vial equipped with a magnetic stirring bar. The selected buffer solution was pre-cooled in a refrigerator and the proper volume was added to the vial. The suspension was placed in the automatic reactor system pre-cooled at 10° C. and stirred at 600 rpm. The temperature was kept constant for 5 minutes to allow the system to equilibrate. The temperature was then increased at 0.5° C./min until a clear solution was obtained. For each pH, four solutions with increasing concentration were prepared and subjected to the same temperature program.
Although this is incorrect from a theoretical point of view, the closeness of the experimental value at 24° C. limited the error made by using this simple approximation.
Although this is incorrect from a theoretical point of view, the closeness of the experimental value at 26° C. limited the error made by using this simple approximation.

CCN(CC)C(=O)SC[C@H](NC(=O)CC[C@H](N)C(=O)O)C(=O)NCC(=O)O.NCCCC[C@H](N)C(=O)O [TNX1001-LLYS-NP01]
solid state stability (XRPD) ([1]; one month at 25° C. and 60% RH): stable | solid state stability (XRPD) ([1]; one month at 40° C. and 75% RH): stable | water solubility as compared to free carbamathione [2]: clear improvement | water uptake (DVS) ([3]; at 70% RH): approximately 6.1 % w/w | water uptake and water release over two sorption/desorption cycles ([3]; hydrated and anhydrous species): reversibly | stability of the solid form under ambient conditions (XRPD) ([4]; after 24 hours and up to 4 days): good stability; also recorded: stable | solid form after exposure of the dried sample to humidity (XRPD) ([4]; approximately 24 hours, ambient conditions): converted spontaneously to initial form TNX1001-LLYS-NP02; also recorded: reconversion of the NP01 form into the NP02 form | Solubility TNX1001-LYS ([5]; pH 1.2): Not stable. TNX1001 | stability in buffer ([5]; pH 1.2 (NaCl/HCl buffer), converted into the parent carbamathione): not stable | Tdiss. ([5]; pH 1.2 buffer, Conc. TNX1001-LYS 297 mg/mL (79 after dilution)): Dissolve and re-precipitate | Tdiss. ([5]; pH 1.2 buffer, Conc. TNX1001-LYS 349 mg/mL, after dilution to 93 mg/mL): Dissolves above 80 °C | Tdiss. ([5]; pH 1.2 buffer, Conc. TNX1001-LYS 400 mg/mL, after dilution to 107 mg/mL): Dissolves above 80 °C | Tdiss. ([5]; pH 1.2 buffer, Conc. TNX1001-LYS 455 mg/mL, after dilution to 121 mg/mL): Dissolves above 80 °C | solubility increase compared with free carbamathione ([5]; pH 4.5, 25° C.): approximately 17% | Solubility TNX1001-LYS ([5]; pH 4.5, 25° C., estimated by linear approximation, equivalent amount of TNX1001 dissolved): 299 mg/mL of TNX1001 | Tdiss. ([5]; pH 4.5 acetate buffer, Conc. TNX1001-LYS 249 mg/mL): <10 °C | Tdiss. ([5]; pH 4.5 acetate buffer, Conc. TNX1001-LYS 299 mg/mL): 16 °C | Tdiss. ([5]; pH 4.5 acetate buffer, Conc. TNX1001-LYS 356 mg/mL): 26 °C | Tdiss. ([5]; pH 4.5 acetate buffer, Conc. TNX1001-LYS 401 mg/mL): 33 °C | solubility increase compared with free carbamathione ([5]; pH 6.8, 25° C.): approximately 10% | Solubility TNX1001-LYS ([5]; pH 6.8, 25° C., estimated by linear approximation, equivalent amount of TNX1001 dissolved): 255 mg/mL of TNX1001 | Tdiss. ([5]; pH 6.8 phosphate buffer, Conc. TNX1001-LYS 199 mg/mL): <10 °C | Tdiss. ([5]; pH 6.8 phosphate buffer, Conc. TNX1001-LYS 223 mg/mL): <10 °C | Tdiss. ([5]; pH 6.8 phosphate buffer, Conc. TNX1001-LYS 340 mg/mL): 24 °C | Tdiss. ([5]; pH 6.8 phosphate buffer, Conc. TNX1001-LYS 397 mg/mL): 33 °C
